The source of these data is patent publication US20260317320A1, “C5AR1 ANTAGONISTS AND USES THEREOF” (Vanqua Bio, Inc., priority 2022, published 2026).

Like-named read-outs stand apart in the source and are kept apart here.

The target in experiment [1] is T1, complement C5a receptor 1 (C5aR1) (Homo sapiens, UniProt P21730).
T1 construct: β-galactosidase fragment (PathHunter enzyme complementation); host or cells: CHO-K1 (PathHunter CHO-K1 C5aR1 β-arrestin cell line)
T1 sequence (P21730 1-350): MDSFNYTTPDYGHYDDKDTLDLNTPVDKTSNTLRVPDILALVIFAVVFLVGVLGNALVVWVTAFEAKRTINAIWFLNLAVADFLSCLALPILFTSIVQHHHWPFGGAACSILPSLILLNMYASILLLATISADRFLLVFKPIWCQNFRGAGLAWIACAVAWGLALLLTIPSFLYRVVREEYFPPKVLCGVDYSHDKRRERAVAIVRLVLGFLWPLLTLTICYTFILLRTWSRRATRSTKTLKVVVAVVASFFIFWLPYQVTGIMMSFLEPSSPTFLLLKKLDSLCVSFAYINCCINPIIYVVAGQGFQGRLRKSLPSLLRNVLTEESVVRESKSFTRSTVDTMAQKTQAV
The experiment in a line: β-arrestin recruitment via C5aR1 activation in live CHO-K1 cells (PathHunter), agonist mode. The experiment is classed as cell-based. A digest of the protocol:
(§1)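 β-arrestin recruitment to C5aR1 in CHO-K1 cells is detected by enzyme-fragment complementation. Antagonism is measured against recombinant hC5a at its EC90; agonism is measured with compound alone. Potencies are grouped into IC50 categories.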
(In general: Arrestin recruitment assays detect the binding of arrestin to an activated receptor.)

Experiment [2] deals with T1, complement C5a receptor 1 (C5aR1). Kind of experiment: β-arrestin recruitment via C5aR1 activation in live CHO-K1 cells (PathHunter), antagonist mode. The experiment is classed as cell-based. To be noted: antagonist mode; recombinant hC5a (EC90) as competing natural agonist; live CHO-K1 cells; read-out: [Antagonist] B-arrestin2 recruitment: Average IC50. A digest of the protocol:
as §1

Turning to `Cc1c(C2CCN(c3cnccc3C(F)(F)F)CC2)c(=O)n(Cc2ncccc2F)c2nccnc12` [compound 86, 5-((3-Fluoropyridin-2-yl)methyl)-8-methyl-7-(1-(4-(trifluoromethyl)pyridin-3-yl)piperidin-4-yl)pyrido[2,3-b]pyrazin-6(5H)-one], in experiment [1], the “[Agonist] B-arrestin2 recruitment: Average EC50 (nM)” value (from here on “[Agonist] B-arrestin2 recruitment”) is listed as “Non-Active”. Also, the IC50 in experiment [2] lay in the range of 500 to 5000 nM.

For the molecule `Cc1cnc2cc([C@H]3CC[C@H](c4c(C)ccnc4F)CC3)c(=O)n(Cc3nccnc3C)c2n1` [135B, 7-((1r,4r)-4-(2-Fluoro-4-methylpyridin-3-yl)cyclohexyl)-3-methyl-5-((3-methylpyrazin-2-yl)methyl)pyrido[2,3-b]pyrazin-6(5H)-one], the “[Agonist] B-arrestin2 recruitment” value in experiment [1] (at 10 μM) is reported as “Non-Active at 10 μM”. In addition, the IC50 in experiment [2] was 5000 to 100000 nM.

For `Cc1cccc(F)c1N1CCC(c2cc3nccnc3n(Cc3nccnc3C(F)(F)F)c2=O)CC1` [compound 12, 7-(1-(2-Fluoro-6-methylphenyl)piperidin-4-yl)-5-((3-(trifluoromethyl)pyrazin-2-yl)methyl)pyrido[2,3-b]pyrazin-6(5H)-one], the “[Agonist] B-arrestin2 recruitment” value in experiment [1] is given as “Non-Active”. For the same molecule, the IC50 in experiment [2] is under 500 nM.

Turning to `Cc1cnc2cc(C3CCN(c4cnccc4C(F)F)CC3)c(=O)n(Cc3ncccc3C(F)(F)F)c2n1` [compound 162, 7-(1-(4-(Difluoromethyl)pyridin-3-yl)piperidin-4-yl)-3-methyl-5-((3-(trifluoromethyl)pyridin-2-yl)methyl)pyrido[2,3-b]pyrazin-6(5H)-one], the “[Agonist] B-arrestin2 recruitment” value in experiment [1] is reported as “Non-Active”. Moreover, the IC50 in experiment [2] is under 500 nM.

On to `Cc1ccc2cc([C@H]3CC[C@H](c4c(C)cccc4F)CC3)c(=O)n(Cc3nccnc3OC(F)F)c2n1` [compound 233, 1-((3-(Difluoromethoxy)pyrazin-2-yl)methyl)-3-((1r,4r)-4-(2-fluoro-6-methylphenyl)cyclohexyl)-7-methyl-1,8-naphthyridin-2(1H)-one], for which, in experiment [1] (at 10 μM), the “[Agonist] B-arrestin2 recruitment” value was “Non-Active at 10 μM”. Besides, the IC50 in experiment [2] is under 500 nM.

Consider `Cc1cnc2cc([C@H]3CC[C@@H](c4c(C)cccc4F)C3)c(=O)n(Cc3nccnc3C(F)(F)F)c2n1` [197A, 7-((1S,3R)-3-(2-Fluoro-6-methylphenyl)cyclopentyl)-3-methyl-5-((3-(trifluoromethyl)pyrazin-2-yl)methyl)pyrido[2,3-b]pyrazin-6(5H)-one], for which the “[Agonist] B-arrestin2 recruitment” value in experiment [1] (at 10 μM) is reported as “Non-Active at 10 μM”. In addition, the IC50 in experiment [2] was under 500 nM.

Take `Cc1cnc2cc([C@H]3CC[C@H](c4ncsc4C)CC3)c(=O)n(Cc3ncccc3C(F)(F)F)c2n1` [compound 163, 3-Methyl-7-((1r,4r)-4-(5-methylthiazol-4-yl)cyclohexyl)-5-((3-(trifluoromethyl)pyridin-2-yl)methyl)pyrido[2,3-b]pyrazin-6(5H)-one]: in experiment [1] (at 10 μM), the “[Agonist] B-arrestin2 recruitment” value is recorded as “Non-Active at 10 μM”. Besides, in experiment [2], the IC50 fell in the range of 500 to 5000 nM.

`Cc1cnc2cc(C3CCN(c4nncs4)CC3)c(=O)n(Cc3ncccc3C(F)(F)F)c2n1` [compound 132, 7-(1-(1,3,4-Thiadiazol-2-yl)piperidin-4-yl)-3-methyl-5-((3-(trifluoromethyl)pyridin-2-yl)methyl)pyrido[2,3-b]pyrazin-6(5H)-one]: in experiment [1], the “[Agonist] B-arrestin2 recruitment” value is listed as “Non-Active”. In experiment [2], the IC50 was over 100000 nM.

For `Cc1cnc2cc([C@H]3CC[C@@H](c4c(C)ccnc4F)CC3)c(=O)n(Cc3nccnc3C(F)(F)F)c2n1` [143B, 7-((1s,4s)-4-(2-Fluoro-4-methylpyridin-3-yl)cyclohexyl)-3-methyl-5-((3-(trifluoromethyl)pyrazin-2-yl)methyl)pyrido[2,3-b]pyrazin-6(5H)-one], the “[Agonist] B-arrestin2 recruitment” value in experiment [1] is “Non-Active”. Further, the IC50 in experiment [2] is 500 to 5000 nM.

As for `Cc1cnc2cc(C3CCN(c4c(C)cccc4F)CC3)c(=O)n([C@@H]3CCC(F)(F)c4nccnc43)c2n1` [149A, (R)-5-(8,8-Difluoro-5,6,7,8-tetrahydroquinoxalin-5-yl)-7-(1-(2-fluoro-6-methylphenyl)piperidin-4-yl)-3-methylpyrido[2,3-b]pyrazin-6(5H)-one], the “[Agonist] B-arrestin2 recruitment” value in experiment [1] is listed as “Non-Active”. Further, the IC50 in experiment [2] fell in the range of 5000 to 100000 nM.

In the case of `Cc1cccc(F)c1N1CCC(c2c(C)c3nccnc3n(Cc3nccnc3OCC(F)(F)F)c2=O)CC1` [compound 4, 7-(1-(2-Fluoro-6-methylphenyl)piperidin-4-yl)-8-methyl-5-((3-(2,2,2-trifluoroethoxy)pyrazin-2-yl)methyl)pyrido[2,3-b]pyrazin-6(5H)-one], the “[Agonist] B-arrestin2 recruitment” value in experiment [1] was “Non-Active”. Moreover, the IC50 in experiment [2] lay in the range of 500 to 5000 nM.

Regarding `COc1ccnc(F)c1[C@H]1CC[C@H](c2cc3ncc(C)nc3n(Cc3ncccc3C(F)(F)F)c2=O)CC1` [compound 189, 7-((1r,4r)-4-(2-Fluoro-4-methoxypyridin-3-yl)cyclohexyl)-3-methyl-5-((3-(trifluoromethyl)pyridin-2-yl)methyl)pyrido[2,3-b]pyrazin-6(5H)-one], the “[Agonist] B-arrestin2 recruitment” value in experiment [1] (at 10 μM) was “Non-Active at 10 μM”. Moreover, in experiment [2], the IC50 is under 500 nM.

Regarding `O=c1c(C2CCN(c3ccccc3C(F)(F)F)CC2)cc2nccnc2n1Cc1ncccc1C(F)(F)F` [compound 38, 7-(1-(2-(Trifluoromethyl)phenyl)piperidin-4-yl)-5-((3-(trifluoromethyl)pyridin-2-yl)methyl)pyrido[2,3-b]pyrazin-6(5H)-one], the “[Agonist] B-arrestin2 recruitment” value in experiment [1] is given as “Non-Active”. The IC50 in experiment [2] is under 500 nM.

Regarding `Cc1ccc2cc([C@H]3C[C@@H](c4c(C)cccc4F)C3)c(=O)n(Cc3ncccc3C(F)(F)F)c2n1` [243B, 3-((1s,3s)-3-(2-Fluoro-6-methylphenyl)cyclobutyl)-7-methyl-1-((3-(trifluoromethyl)pyridin-2-yl)methyl)-1,8-naphthyridin-2(1H)-one], in experiment [1], the “[Agonist] B-arrestin2 recruitment” value is given as “Non-Active”. In experiment [2], the IC50 was under 500 nM.

Take `Cc1cccc(F)c1N1CCC(c2cc3nccnc3n([C@H]3CCCc4cccnc43)c2=O)CC1` [40b, (S)-7-(1-(2-Fluoro-6-methylphenyl)piperidin-4-yl)-5-(5,6,7,8-tetrahydroquinolin-8-yl)pyrido[2,3-b]pyrazin-6(5H)-one]: the “[Agonist] B-arrestin2 recruitment” value in experiment [1] is “Non-Active”. Moreover, the IC50 in experiment [2] was over 100000 nM.

For `Cc1cnc2cc([C@@H]3CC[C@@H](c4c(C)cccc4F)C3)c(=O)n(Cc3ncccc3C(F)(F)F)c2n1` [171D, 7-((1R,3R)-3-(2-Fluoro-6-methylphenyl)cyclopentyl)-3-methyl-5-((3-(trifluoromethyl)pyridin-2-yl)methyl)pyrido[2,3-b]pyrazin-6(5H)-one], the “[Agonist] B-arrestin2 recruitment” value in experiment [1] (at 10 μM) is recorded as “Non-Active at 10 μM”. Also, in experiment [2], the IC50 was 500 to 5000 nM.

Turning to `Cc1cnc2cc(C3CCN(c4cccnc4C(F)(F)F)CC3)c(=O)n(Cc3ncccc3C(F)(F)F)c2n1` [compound 157, 3-Methyl-5-((3-(trifluoromethyl)pyridin-2-yl)methyl)-7-(1-(2-(trifluoromethyl)pyridin-3-yl)piperidin-4-yl)pyrido[2,3-b]pyrazin-6(5H)-one], in experiment [1] (at 10 μM), the “[Agonist] B-arrestin2 recruitment” value is “Non-Active at 10 μM”. The IC50 in experiment [2] was in the range of 500 to 5000 nM.

In the case of `Cc1ccc2cc([C@H]3CC[C@H](c4cnccc4C(F)(F)F)CC3)c(=O)n(Cc3ncccc3OC(F)(F)F)c2n1` [compound 247, 7-Methyl-1-((3-(trifluoromethoxy)pyridin-2-yl)methyl)-3-((1r,4r)-4-(4-(trifluoromethyl)pyridin-3-yl)cyclohexyl)-1,8-naphthyridin-2(1H)-one], the “[Agonist] B-arrestin2 recruitment” value in experiment [1] (at 10 μM) is “Non-Active at 10 μM”. In experiment [2], the 50% inhibitory concentration (IC50) is under 500 nM.

Turning to `Cc1cnc2cc(C3CCN(c4c(C)cccc4F)CC3)c(=O)n([C@H]3CCCc4nccnc43)c2n1` [61a, (S)-7-(1-(2-Fluoro-6-methylphenyl)piperidin-4-yl)-3-methyl-5-(5,6,7,8-tetrahydroquinoxalin-5-yl) pyrido[2,3-b]pyrazin-6(5H)-one], the “[Agonist] B-arrestin2 recruitment” value in experiment [1] is “Non-Active”. Also, the IC50 in experiment [2] was 500 to 5000 nM.

With `COc1nccc(C)c1[C@H]1CC[C@H](c2cc3ccc(C)nc3n(Cc3ncccc3OC(F)(F)F)c2=O)CC1` [compound 261, 7-Methyl-3-[(1r,4r)-4-(2-methoxy-4-methyl-3-pyridyl)cyclohexyl]-1-[(3-trifluoromethoxy-2-pyridyl)methyl]-1,8-diaza-2(1H)-naphthalenone], the “[Agonist] B-arrestin2 recruitment” value in experiment [1] is recorded as “Non-Active”. Besides, the IC50 in experiment [2] is under 500 nM.

Consider `Cc1ccc2cc([C@H]3CC[C@H](c4c(C)cccc4F)CC3)c(=O)n(Cc3ncccc3CC(F)F)c2n1` [compound 268, 1-{[3-(2,2-Difluoroethyl)-2-pyridyl]methyl}-7-methyl-3-[(1r,4r)-4-(2-fluoro-6-tolyl)cyclohexyl]-1,8-diaza-2(1H)-naphthalenone], for which the “[Agonist] B-arrestin2 recruitment” value in experiment [1] is given as “Non-Active”. Further, the IC50 in experiment [2] was under 500 nM.

For orientation: IC50 means the concentration that inhibits the measured activity by half.
